Laboratory results taken from US20240417404A1, “CRYSTALLINE FORMS OF N-[4-[4-(4-MORPHOLINYL)-7H-PYRROLO[2,3-d]PYRIMIDIN-6-YL]PHENYL]-4-[[3(R)-[(1-OXO-2-PROPEN-1-YL)AMINO]-1-[sequence]]METHYL]-2-PYRIDINECARBOXAMIDE AS IRREVERSIBLE INHIBITORS OF MENIN-MLL INTERACTION” (BIOMEA FUSION, INC., priority 2023, published 2024).
Entries after “also recorded” stand apart in the source; their conditions may differ. Read-outs that look alike come from different tables or passages of the source.

Experiments:
MM1.S = test: MM cell line proliferation (Cell Titer Glo, four days): MM1.S; type: cell-based; details: t(14; 16), KRAS G12A
Protocol: (§1) DLBCL cell line TOLEDO was cultured in the presence of Compound A or clinical reversible menin inhibitors for six and fourteen hours. Menin protein expression was reduced up to 60% at 1 μM by Compound A after fourteen hours compared to clinical reversible inhibitors at <20% at similar concentrations. Menin protein expression was measured by the Wes system and analyzed using the Compass software (automated western blotting, Protein Simple). Signal was normalized to GAPDH and referenced to DMSO control (FIG. 36E). DLBCL and MM cell lines were cultured with Compound A, bortezomib (PS-341), or DMSO for four days and cell proliferation was measured by Cell Titer Glo. Ex vivo studies of DLBCL and MM models were conducted by measurement of cell proliferation (Cell Titer Glo) after six days of treatment with Compound A, PS-341, or DMSO control.

SUDHL8 = test: DLBCL cell line proliferation (Cell Titer Glo, four days): SUDHL8; type: cell-based; details: SUDHL8, GCB
Protocol: as §1

U2932 = test: DLBCL cell line proliferation (Cell Titer Glo, four days): U2932; type: cell-based; details: U2932, DEL-ABC, MYC/BCL2 Overexpression
Protocol: as §1

[1] = test system: patient-derived THL and MYC-amplified DLBCL PDX samples; test: Ex vivo DLBCL patient-derived PDX samples (Cell Titer Glo, six days); type: cell-based, human; details: THL/R-CHOP-refractory and MYC amplification/R-EPOCH refractory clinical profiles
Protocol: (§2) Compound A was tested against a THL cell line (VAL), and a DEL cell line (U2932). An expanded panel of DHL cell lines were tested for sensitivity to Compound A. Ex vivo patient samples of THL and MYC-amplified DLBCL were tested with Compound A. Sensitivity of THL and MYC-driven DLBCL in both in vitro and ex vivo models were compared with clinical reversible menin inhibitors. Compound A was tested against a panel of MM cell lines and ex vivo MM patient samples of p53del, 13qdel, and relapsed/refractory cases.
as §1

SKMM2 = test: MM cell line proliferation (Cell Titer Glo, four days): SKMM2; type: cell-based; details: SKMM2, t(11; 14), TP53
Protocol: as §1

[2] = test system: MM patient-derived bone marrow mononuclear cells (BMMCs); test: Ex vivo MM patient-derived bone marrow mononuclear cells (Cell Titer Glo, six days); type: cell-based; details: Homo sapiens, BMMC; panel of newly diagnosed and R/R ex vivo MM samples, single agent
Protocol: as §2, §1

MM cell lines = test: MM cell line panel proliferation (Cell Titer Glo, four days); type: cell-based
Protocol: as §2, §1

Toledo = test: DLBCL cell line proliferation (Cell Titer Glo, four days): Toledo; type: cell-based; details: DHL, MYC/BCL2
Protocol: as §1

[3] = target: T1, Menin protein in DLBCL cell line TOLEDO (Homo sapiens, UniProt O00255); test: Menin protein expression in TOLEDO cells (Wes automated western blotting); type: cell-based; details: 1 μM, fourteen hours, normalized to GAPDH, referenced to DMSO
T1 construct: endogenous in cells; host or cells: TOLEDO (DLBCL cell line)
T1 sequence (O00255 whole entry): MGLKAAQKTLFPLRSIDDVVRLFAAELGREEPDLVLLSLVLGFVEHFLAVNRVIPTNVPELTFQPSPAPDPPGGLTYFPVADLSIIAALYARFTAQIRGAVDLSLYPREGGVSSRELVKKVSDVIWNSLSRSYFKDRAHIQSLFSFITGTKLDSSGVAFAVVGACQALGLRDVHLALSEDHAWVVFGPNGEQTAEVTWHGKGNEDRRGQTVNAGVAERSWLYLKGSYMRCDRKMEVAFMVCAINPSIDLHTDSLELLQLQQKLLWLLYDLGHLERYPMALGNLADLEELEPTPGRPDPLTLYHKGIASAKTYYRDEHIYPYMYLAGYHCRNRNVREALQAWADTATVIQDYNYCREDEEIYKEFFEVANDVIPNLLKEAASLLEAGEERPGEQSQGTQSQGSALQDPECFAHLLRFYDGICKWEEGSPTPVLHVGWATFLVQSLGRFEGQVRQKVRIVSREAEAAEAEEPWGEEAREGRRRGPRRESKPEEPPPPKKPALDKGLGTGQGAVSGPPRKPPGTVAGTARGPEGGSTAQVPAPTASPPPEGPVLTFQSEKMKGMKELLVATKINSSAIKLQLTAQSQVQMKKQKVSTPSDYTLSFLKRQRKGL
Protocol: as §1

[4] = test system: healthy adult subjects and type 2 diabetes mellitus adult subjects; test: Clinical study (SAD, food effect, MAD cohorts) in healthy and type 2 diabetes mellitus subjects; type: in vivo, human
Protocol: (§3) In Experimental Phase 1 (SAD cohorts), 40 healthy adult subjects were randomized into 4 dose escalating cohorts of 10. In each cohort, subjects were randomized at 7:3 (active and placebo) in sequential order. Each cohort was composed of 2 sentinel subjects randomized at 1:1 (active and placebo), followed by 8 additional subjects randomized at 3:1 (active and placebo). Doses were 100 mg, 200 mg, 400 mg, and 600 mg.
(§4) In Experimental Phase 1 (3-period crossover, food effect study), each cohort of 12 healthy adult subjects was randomized at 1:1:1:1:1:1 in a 3-period crossover study with 6 treatment sequences.
(§5) In Experimental Phase 2 (MAD cohorts), 1 cohort of 16 healthy adult subjects was randomized at 3:1 (active and placebo), and 7 cohorts of type 2 diabetes mellitus adult subjects were randomized at 5:1 (active and placebo) to obtain safety and efficacy data to identify the potential optimal biological dose (OBD) and a recommended Phase 2 dose (RP2D). Doses were 100 mg, 200 mg, 400 mg, and 600 mg.

[5] = as above; type: in vivo, human; details: human, in vivo, oral; for AUC: read-out: Exposure: AUC; for Cmax: read-out: Exposure: Cmax
Protocol: as §3, §4, §5

JJN3 = test: MM cell line proliferation (Cell Titer Glo, four days): JJN3; type: cell-based; details: JJN3, t(14; 16), NRAS Q61K
Protocol: as §1

[6] = test system: KRAS mutated CRC, NSCLC and pancreatic cancer cell lines; test: Proliferation of KRAS mutated cell lines (CellTiter-Glo, four days); type: cell-based; details: Homo sapiens, the 31st table c5, read-out: RAS WT GI50 (μM) Pancreatic (4)
DB = test: DLBCL cell line proliferation (Cell Titer Glo, four days): DB; type: cell-based; details: DHL
Protocol: as §1

[7] = test system: DHL, THL, and DEL DLBCL cell lines; test: DLBCL cell line panel proliferation (Cell Titer Glo, four days); type: cell-based
Protocol: as §2, §1

C=CC(=O)N[C@@H]1CCCN(Cc2ccnc(C(=O)Nc3ccc(-c4cc5c(N6CCOCC6)ncnc5[nH]4)cc3)c2)C1 [Compound A, N-[4-[4-(4-morpholinyl)-7H-pyrrolo[2,3-d]pyrimidin-6-yl]phenyl]-4-[[3(R)-[(1-oxo-2-propen-1-yl)amino]-1-piperidinyl]methyl]-2-pyridinecarboxamide]
Average % Max Inhibition by Compound A (MM1.S): 99.5%
Average % Max Inhibition by Compound A (SUDHL8): 99.6%
IC50 (U2932; Homo sapiens, read-out: Average IC50 ± Standard Deviation): 370 ± 12 nM
Average % Max Inhibition by Compound A (U2932): 92.4%
growth inhibition of ex vivo DLBCL patient samples [1]: complete growth inhibition; also recorded: highly effective
Average % Max Inhibition by Compound A (SKMM2): 80.2%
IC50 [2]: 100 to 300 nM
cell lethality (MM cell lines; MM cell lines): > 99%
growth inhibition (MM cell lines; MM cell lines harboring mutations in TP53, KRAS, and NRAS, 1 μM exposure, single agent): 100%
Average % Max Inhibition by Compound A (Toledo): 98.8%
reduction of Menin protein expression [3]: up to 60%
dose discontinuations ([4]; 4 weeks of treatment): no dose discontinuations
episodes of symptomatic hypoglycemia ([4]; 4 weeks of treatment): No episodes of symptomatic hypoglycemia occurred in any patients
safety profile ([4]; 4 weeks of treatment): well-tolerated safety profile
severe or serious TEAEs ([4]; 4 weeks of treatment): No severe or serious TEAEs were observed
Mean Change in HbA1c % at Week 4 ([4]; Cohort 2): (−0.25) %
Median Change in HbA1c % at Week 4 ([4]; Cohort 2): −0.3%
Mean Change in HbA1c % at Week 4 ([4]; Cohort 3): (−0.81) %
Median Change in HbA1c % at Week 4 ([4]; Cohort 3): −1.0%
patients who achieved a reduction in HbA1c ([4]; any reduction): 89%
median change of Hb1Ac ([4]; cohort when taken with food): -0.3%
median change of Hb1Ac ([4]; cohort when taken without food): -1%
patients who achieved ≥0.5% reduction in HbA1c ([4]; human, in vivo): 78%
patients who achieved ≥1% reduction in HbA1c ([4]; human, in vivo): 56%
AUC ([5]; Cohort 2 (taken with food)): 84.3 ng·h/mL
Cmax ([5]; Cohort 2 (taken with food)): 34.8 ng/mL
AUC ([5]; Cohort 3 (taken without food)): 224 ng·h/mL
Cmax ([5]; Cohort 3 (taken without food)): 94.2 ng/mL
Average % Max Inhibition by Compound A (JJN3): 99.2%
GI50 [6]: 0.43 to 0.83 µM
Average % Max Inhibition by Compound A (DB; MYC/BCL2): 98.5%
IC50 (DB; Homo sapiens, MYC/BCL2, read-out: Average IC50 ± Standard Deviation): 407 ± 67 nM
cell lethality ([7]; DHL, THL, and DEL DLBCL cell lines): > 90%
growth inhibition of THL and DEL cell line models ([7]; VAL, U2932): complete growth inhibition
